Earlier results, collected in US20100136119A1, “CONTROLLED-RELEASE PREPARATION CONTAINING CILOSTAZOL AND PROCESS FOR THE PREPARATION THEREOF” (AMOREPACIFIC CORPORATION, priority 2007, published 2010).

solubility in water: ≤ 1 µg/mL
SMILES: O=C1CCc2cc(OCCCCc3nnnn3C3CCCCC3)ccc2N1 [Cilostazol]
